The values that follow come from patent US8343539B2, “Compounds that bind α5β1 integrin and methods of use” (Regents of the University of Minnesota, priority 2006, dated 2013).

In assay [1] the test system is HUVECs. Description: HUVEC adhesion timed experiments on LB membranes (Example 2). It counts as cell-based, human. Here is the method:
Surface preparation: Each peptide-amphiphile was used to form homogenous LB membranes as in previous work (Kokkoli Langmuir 2004; 20:2397-2404), except that both the water and 15 mm mica disks used had been autoclaved for sterility. All depositions were done at a surface pressure between 41 and 47 mN/m, well below the collapse pressure and in the liquid-condensed or solid phase. Approximately 90 minutes before cells were seeded on the LB films to begin cell adhesion experiments, mica surfaces were transferred into 1× phosphate buffered saline (PBS), with particular care taken to ensure films were not exposed to air. After 5-10 minutes of equilibration, surfaces were transferred into 24-well plates containing a supplemented MCDB-131 basal media (Sigma), as described in Example 1. Following surface transfer, 24-well plates were moved to a 37° C., 5% CO2 incubator for 45-60 minutes. As a control, 22 mm diameter human fibronectin-coated coverslips (BD Biosciences), referred to as FN, were put into 12-well plates, covered with 2 ml of the supplemented media, and also incubated for 45-60 minutes.
Cell culture: Human umbilical vein endothelial cells, HUVECs (Cambrex Corporation), were cultured as described previously (see Example 1). Only cells from passage 3 were used in all studies.
Cell adhesion experiments: Flasks of HUVECs with at least 90% confluency were washed with 1×PBS, trypsinized with 0.25% Trypsin-EDTA (Fisher Scientific), and neutralized with 2% fetal bovine serum in MCDB-131 basal media. The suspended cells from all flasks were placed in one 50 ml centrifuge tube and centrifuged at 1000 rpm for 5 minutes. The media was removed and the cell pellet was resuspended in the supplemented media described above. A hemocytometer was used to count the cells and then 497 cells/mm^2 were seeded onto both LB and FN surfaces. Surfaces were incubated with cells at 37° C., 5% CO2 for 1, 4, or 12 hours. Cell adhesion following these times was determined using the CyQuant cell proliferation assay kit (Molecular Probes), which measures the fluorescence of a cellular nucleic acid-binding dye using the SpectraMAX GeminiXS plate reader (Molecular Devices). Standard calibration curves were created within each experiment for both 12- and 24-well plates.

Assay [2] addresses α5β1 integrin (Homo sapiens, UniProt P05556+P08648). Particulars: inferred from literature on polyglycine linkers (Petrie 2006); cited from earlier work.

Where no end group is shown, it is not given here. (C16)2‑Glu‑C2 = lipid tail

α5β1 integrin, sequence (P08648 42-894 limits assumed): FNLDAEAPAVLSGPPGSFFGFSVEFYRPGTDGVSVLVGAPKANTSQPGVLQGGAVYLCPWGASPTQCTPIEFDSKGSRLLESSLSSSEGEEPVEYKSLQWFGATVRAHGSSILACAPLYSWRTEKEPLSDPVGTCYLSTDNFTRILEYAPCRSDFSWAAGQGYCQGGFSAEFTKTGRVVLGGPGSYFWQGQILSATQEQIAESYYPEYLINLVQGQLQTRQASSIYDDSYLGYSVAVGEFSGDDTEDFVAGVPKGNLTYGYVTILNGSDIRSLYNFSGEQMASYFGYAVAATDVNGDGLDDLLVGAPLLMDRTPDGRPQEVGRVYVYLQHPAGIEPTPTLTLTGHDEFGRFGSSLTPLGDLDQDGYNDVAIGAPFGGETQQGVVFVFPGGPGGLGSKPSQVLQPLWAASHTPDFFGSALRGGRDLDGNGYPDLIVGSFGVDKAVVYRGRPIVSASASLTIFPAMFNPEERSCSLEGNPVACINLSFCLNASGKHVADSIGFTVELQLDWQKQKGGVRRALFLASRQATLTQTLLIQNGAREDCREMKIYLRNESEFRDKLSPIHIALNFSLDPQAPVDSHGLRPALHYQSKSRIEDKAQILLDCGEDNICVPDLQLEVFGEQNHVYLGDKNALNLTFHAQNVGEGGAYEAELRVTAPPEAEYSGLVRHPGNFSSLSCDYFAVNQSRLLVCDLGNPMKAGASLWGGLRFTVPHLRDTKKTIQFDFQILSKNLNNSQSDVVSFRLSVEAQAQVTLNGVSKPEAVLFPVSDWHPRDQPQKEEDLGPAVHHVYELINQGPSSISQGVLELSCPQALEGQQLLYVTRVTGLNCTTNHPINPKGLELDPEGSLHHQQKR
α5β1 integrin, sequence (P08648 895-1049 partner limits assumed): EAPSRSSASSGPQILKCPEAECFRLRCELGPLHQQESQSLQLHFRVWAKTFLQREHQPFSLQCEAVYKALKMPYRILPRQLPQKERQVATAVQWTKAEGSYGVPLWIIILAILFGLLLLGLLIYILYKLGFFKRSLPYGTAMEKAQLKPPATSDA
α5β1 integrin, sequence (P05556 21-798): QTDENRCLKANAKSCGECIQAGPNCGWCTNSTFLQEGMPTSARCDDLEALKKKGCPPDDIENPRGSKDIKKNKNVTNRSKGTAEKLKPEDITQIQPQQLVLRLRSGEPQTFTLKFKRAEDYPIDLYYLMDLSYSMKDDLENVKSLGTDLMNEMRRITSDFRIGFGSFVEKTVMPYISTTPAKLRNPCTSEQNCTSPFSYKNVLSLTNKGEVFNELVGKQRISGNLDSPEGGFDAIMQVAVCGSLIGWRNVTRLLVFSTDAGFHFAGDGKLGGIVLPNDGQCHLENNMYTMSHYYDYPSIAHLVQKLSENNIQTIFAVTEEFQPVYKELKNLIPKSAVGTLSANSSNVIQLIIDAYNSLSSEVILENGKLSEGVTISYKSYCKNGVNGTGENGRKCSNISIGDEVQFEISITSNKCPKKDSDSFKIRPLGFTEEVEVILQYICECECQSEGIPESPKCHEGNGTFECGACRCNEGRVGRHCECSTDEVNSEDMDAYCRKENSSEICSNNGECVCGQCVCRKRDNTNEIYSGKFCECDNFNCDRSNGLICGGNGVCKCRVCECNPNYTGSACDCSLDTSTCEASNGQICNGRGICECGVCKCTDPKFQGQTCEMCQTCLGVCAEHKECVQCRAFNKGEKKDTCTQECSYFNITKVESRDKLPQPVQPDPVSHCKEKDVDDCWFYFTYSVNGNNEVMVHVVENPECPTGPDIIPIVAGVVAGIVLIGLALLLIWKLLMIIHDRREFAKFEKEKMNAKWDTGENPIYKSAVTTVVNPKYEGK

In the case of “(C16)2-Glu-C2-KSSPHSRNGGGGGGGGGGRGDSP ({(C16)2‑Glu‑C2}-KSSPHSRNGGGGGGGGGGRGDSP) [Pr_c]”, the “HUVEC adhesion level (description)” value in assay [1] (1, 4 and 12 hours) is listed as “high adhesion at 1 hour”. In assay [1] (up to 12 hours), the “Maintenance / decay of HUVEC adhesion over time” value is on record as “not maintained at longer time periods”. Moreover, the “Specificity for the α5β1 integrin” value in assay [2] is “not specific to the α5β1 integrin”.
